Experimental data reported in PubChem BioAssay (NCI).
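Growth conditions: 96-well plates. Treatment: test compound, 48 hours, 5 concentrations. Analysis: linear interpolation between bracketing concentrations; unreached endpoints set to highest concentration. Here, GI50 denotes the concentration required for 50% inhibition of growth. TGI denotes the concentration required for complete inhibition of growth.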

Experiments:
Test in all cases: growth of human tumour cells (NCI), 48 h
OVCAR-3 ovarian = test system: OVCAR-3 ovarian
SW-620 colon = test system: SW-620 colon
M14 melanoma = test system: M14 melanoma
UACC-62 melanoma = test system: UACC-62 melanoma
MDA-MB-435 = test system: MDA-MB-435
UO-31 renal = test system: UO-31 renal
SN12C renal = test system: SN12C renal
HS 578T breast = test system: HS 578T breast
T-47D breast = test system: T-47D breast
HL-60(TB) leukemia = test system: HL-60(TB) leukemia

**Q.** How did the TGI (OVCAR-3 ovarian) turn out when `CCc1n[nH]c(=O)n1NC(=O)c1ccccc1C(=O)O` was run?
**A.** > 100 µM

**Q.** And the TGI (SW-620 colon)?
**A.** > 100 µM

**Q.** What about the TGI (M14 melanoma) of the same compound?
**A.** > 100 µM

**Q.** What about the TGI (UACC-62 melanoma) of the same compound?
**A.** > 100 µM

**Q.** And the TGI (MDA-MB-435)?
**A.** > 100 µM

**Q.** And the TGI (UO-31 renal)?
**A.** > 100 µM

**Q.** And the TGI (SN12C renal)?
**A.** > 100 µM

**Q.** What does the source list for `CCN(CC)CCSc1nc2c(c(=N)n1-c1ccccc1)c(=S)n(-c1ccccc1)c(=S)n2-c1ccccc1`?
**A.** TGI (OVCAR-3 ovarian): 3.07 µM; TGI (SW-620 colon): > 21.4 µM; TGI (HS 578T breast): > 90.9 µM; TGI (M14 melanoma): 5 µM; TGI (T-47D breast): 9.03 µM; TGI (UACC-62 melanoma): 3.16 µM; TGI (HL-60(TB) leukemia): 1.29 µM; TGI (MDA-MB-435): 3.77 µM; TGI (SN12C renal): 3.29 µM

**Q.** `COC(=O)[C@H](Cc1ccccc1)NP(=O)(O)OCC1OC(n2cc(C)c(=O)[nH]c2=O)CC1N=[N+]=[N-]` (stereo partly drawn) was tested. Which TGI (OVCAR-3 ovarian) did it give?
**A.** > 100 µM

**Q.** And the TGI (SW-620 colon)?
**A.** > 100 µM

**Q.** What about the TGI (HS 578T breast) of the same compound?
**A.** > 100 µM

**Q.** What about the TGI (M14 melanoma) of the same compound?
**A.** > 100 µM

**Q.** And the TGI (T-47D breast)?
**A.** > 100 µM

**Q.** What about the TGI (HL-60(TB) leukemia) of the same compound?
**A.** > 100 µM

**Q.** What about the TGI (MDA-MB-435) of the same compound?
**A.** > 100 µM

**Q.** What about the TGI (UO-31 renal) of the same compound?
**A.** > 100 µM

**Q.** What about the TGI (SN12C renal) of the same compound?
**A.** > 100 µM

**Q.** Which TGI (OVCAR-3 ovarian) does the source give for `Cc1ccc(O)c(-c2csc(NCN3CCN(CNc4nc(-c5cc(C)ccc5O)cs4)CC3)n2)c1` here?
**A.** > 100 µM

**Q.** What about the TGI (SW-620 colon) of the same compound?
**A.** > 100 µM

**Q.** What about the TGI (HS 578T breast) of the same compound?
**A.** > 100 µM

**Q.** And the TGI (M14 melanoma)?
**A.** > 100 µM

**Q.** What about the TGI (UACC-62 melanoma) of the same compound?
**A.** > 100 µM

**Q.** And the TGI (HL-60(TB) leukemia)?
**A.** > 100 µM

**Q.** And the TGI (MDA-MB-435)?
**A.** > 100 µM

**Q.** And the TGI (UO-31 renal)?
**A.** > 100 µM

**Q.** And the TGI (SN12C renal)?
**A.** > 100 µM

**Q.** Which TGI (OVCAR-3 ovarian) does the source give for `O=c1[nH]c(Nc2cccc(Br)c2)nc2nc[nH]c12` here?
**A.** > 100 µM

**Q.** What about the TGI (SW-620 colon) of the same compound?
**A.** > 100 µM

**Q.** And the TGI (HS 578T breast)?
**A.** > 100 µM

**Q.** What about the TGI (M14 melanoma) of the same compound?
**A.** > 100 µM

**Q.** What about the TGI (T-47D breast) of the same compound?
**A.** > 100 µM

**Q.** And the TGI (UACC-62 melanoma)?
**A.** > 100 µM

**Q.** And the TGI (HL-60(TB) leukemia)?
**A.** > 100 µM

**Q.** And the TGI (MDA-MB-435)?
**A.** > 100 µM

**Q.** What about the TGI (UO-31 renal) of the same compound?
**A.** > 100 µM

**Q.** Which results are given for `CC1(C)C[C@H](O)[C@H](O)[C@]23C(=O)O[C@H](O)[C@H]2C(C=O)=CC[C@@H]13`?
**A.** TGI (OVCAR-3 ovarian): > 100 µM; TGI (SW-620 colon): > 100 µM; TGI (HS 578T breast): > 100 µM; TGI (T-47D breast): > 100 µM; TGI (UACC-62 melanoma): > 100 µM; TGI (HL-60(TB) leukemia): > 100 µM; TGI (MDA-MB-435): > 100 µM; TGI (UO-31 renal): > 100 µM; TGI (SN12C renal): > 100 µM

**Q.** With `Nn1c(SCC(=O)NCc2ccccc2)nc2ccccc2c1=O` as the compound, how does the TGI (OVCAR-3 ovarian) read?
**A.** > 100 µM

**Q.** And the TGI (SW-620 colon)?
**A.** > 100 µM

**Q.** What about the TGI (HS 578T breast) of the same compound?
**A.** > 100 µM

**Q.** What about the TGI (M14 melanoma) of the same compound?
**A.** > 100 µM

**Q.** And the TGI (T-47D breast)?
**A.** > 100 µM

**Q.** And the TGI (UACC-62 melanoma)?
**A.** > 100 µM

**Q.** And the TGI (MDA-MB-435)?
**A.** > 100 µM

**Q.** And the TGI (UO-31 renal)?
**A.** > 100 µM

**Q.** And the TGI (SN12C renal)?
**A.** > 100 µM

**Q.** How did the TGI (OVCAR-3 ovarian) turn out when `CC(NC(=O)C(N)CC(=O)O)NC(=O)N1CCOCC1` (stereo not drawn) was run?
**A.** > 100 µM

**Q.** What about the TGI (SW-620 colon) of the same compound?
**A.** > 100 µM

**Q.** What about the TGI (HS 578T breast) of the same compound?
**A.** > 100 µM

**Q.** What about the TGI (M14 melanoma) of the same compound?
**A.** > 100 µM

**Q.** What about the TGI (UACC-62 melanoma) of the same compound?
**A.** > 100 µM

**Q.** What about the TGI (MDA-MB-435) of the same compound?
**A.** > 100 µM

**Q.** What about the TGI (UO-31 renal) of the same compound?
**A.** > 100 µM

**Q.** What about the TGI (SN12C renal) of the same compound?
**A.** > 100 µM

**Q.** For `CCCC#CC(O)(C(=O)OC1CCN(C)CC1)C1CCCCC1` (stereo not drawn), which TGI (OVCAR-3 ovarian) is on record?
**A.** > 100 µM

**Q.** And the TGI (SW-620 colon)?
**A.** > 100 µM

**Q.** What about the TGI (HS 578T breast) of the same compound?
**A.** > 100 µM

**Q.** What about the TGI (M14 melanoma) of the same compound?
**A.** > 100 µM

**Q.** And the TGI (T-47D breast)?
**A.** > 100 µM

**Q.** What about the TGI (UACC-62 melanoma) of the same compound?
**A.** > 100 µM

**Q.** What about the TGI (MDA-MB-435) of the same compound?
**A.** > 100 µM

**Q.** What about the TGI (UO-31 renal) of the same compound?
**A.** > 100 µM

**Q.** And the TGI (SN12C renal)?
**A.** > 100 µM

**Q.** For `COc1ccc(Nc2nc(N)c(C(=O)c3ccccc3)s2)cc1`, which TGI (OVCAR-3 ovarian) is on record?
**A.** > 100 µM

**Q.** What about the TGI (SW-620 colon) of the same compound?
**A.** > 100 µM

**Q.** What about the TGI (HS 578T breast) of the same compound?
**A.** 3.18 µM

**Q.** What about the TGI (T-47D breast) of the same compound?
**A.** > 100 µM

**Q.** And the TGI (UACC-62 melanoma)?
**A.** > 100 µM

**Q.** What about the TGI (HL-60(TB) leukemia) of the same compound?
**A.** 0.271 µM

**Q.** And the TGI (MDA-MB-435)?
**A.** > 100 µM

**Q.** What about the TGI (UO-31 renal) of the same compound?
**A.** 44.2 µM

**Q.** And the TGI (SN12C renal)?
**A.** 66.3 µM

**Q.** How did the GI50 (SW-620 colon) turn out when `COc1ccc(Cl)cc1NC(=O)c1c(NC(=O)C(F)(F)C(F)(F)F)sc2c1CCCCC2` was run?
**A.** 1.93 µM

**Q.** And the TGI (SW-620 colon)?
**A.** > 100 µM

**Q.** What about the GI50 (HS 578T breast) of the same compound?
**A.** 1.37 µM

**Q.** What about the TGI (HS 578T breast) of the same compound?
**A.** 7.54 µM

**Q.** What about the GI50 (M14 melanoma) of the same compound?
**A.** 2.66 µM

**Q.** And the TGI (M14 melanoma)?
**A.** > 100 µM

**Q.** What about the GI50 (T-47D breast) of the same compound?
**A.** 1.26 µM

**Q.** What about the TGI (T-47D breast) of the same compound?
**A.** 5.49 µM

**Q.** What about the GI50 (UACC-62 melanoma) of the same compound?
**A.** 0.397 µM

**Q.** And the TGI (UACC-62 melanoma)?
**A.** 3.86 µM

**Q.** What about the GI50 (HL-60(TB) leukemia) of the same compound?
**A.** 2.13 µM

**Q.** And the TGI (HL-60(TB) leukemia)?
**A.** 6.63 µM

**Q.** What about the GI50 (MDA-MB-435) of the same compound?
**A.** 2.52 µM

**Q.** What about the TGI (MDA-MB-435) of the same compound?
**A.** > 100 µM

**Q.** What about the GI50 (UO-31 renal) of the same compound?
**A.** 1.94 µM

**Q.** What about the TGI (UO-31 renal) of the same compound?
**A.** 5.75 µM
